Results published in ChEMBL document CHEMBL1201862, “PubChem BioAssay data set” (2004).
Active and inactive are the calls of the source.

Columns and labels:
[1] = molecular target: T1, High affinity choline transporter 1 (Homo sapiens, UniProt Q9GZV3); assay: CHT inhibitors, dose response, cell-based, 5-point CRC, membrane potential dye (AID 504840); type: functional
T1 sequence (Q9GZV3 whole entry): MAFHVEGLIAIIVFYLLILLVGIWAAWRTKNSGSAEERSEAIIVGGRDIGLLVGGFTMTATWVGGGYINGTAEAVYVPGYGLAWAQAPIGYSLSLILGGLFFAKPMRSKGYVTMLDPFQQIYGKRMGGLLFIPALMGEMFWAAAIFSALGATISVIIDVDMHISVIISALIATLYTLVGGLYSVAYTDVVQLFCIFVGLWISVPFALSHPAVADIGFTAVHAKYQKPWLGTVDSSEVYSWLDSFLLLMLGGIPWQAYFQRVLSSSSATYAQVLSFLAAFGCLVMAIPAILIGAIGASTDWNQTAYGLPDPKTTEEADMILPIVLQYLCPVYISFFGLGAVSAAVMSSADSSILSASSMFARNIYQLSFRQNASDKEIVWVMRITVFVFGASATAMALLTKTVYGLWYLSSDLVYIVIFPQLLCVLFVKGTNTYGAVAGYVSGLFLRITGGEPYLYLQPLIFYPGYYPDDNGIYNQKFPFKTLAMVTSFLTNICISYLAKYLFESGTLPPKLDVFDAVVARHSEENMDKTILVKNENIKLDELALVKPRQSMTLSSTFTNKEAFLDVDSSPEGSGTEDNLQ

[2] = molecular target: Voltage-dependent T-type calcium channel subunit alpha-1H (Homo sapiens, UniProt O95180); type: functional;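 also: channel activity triggered by adding a high calcium stimulation buffer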
Chain of Voltage-dependent T-type calcium channel subunit alpha-1H (O95180 whole entry): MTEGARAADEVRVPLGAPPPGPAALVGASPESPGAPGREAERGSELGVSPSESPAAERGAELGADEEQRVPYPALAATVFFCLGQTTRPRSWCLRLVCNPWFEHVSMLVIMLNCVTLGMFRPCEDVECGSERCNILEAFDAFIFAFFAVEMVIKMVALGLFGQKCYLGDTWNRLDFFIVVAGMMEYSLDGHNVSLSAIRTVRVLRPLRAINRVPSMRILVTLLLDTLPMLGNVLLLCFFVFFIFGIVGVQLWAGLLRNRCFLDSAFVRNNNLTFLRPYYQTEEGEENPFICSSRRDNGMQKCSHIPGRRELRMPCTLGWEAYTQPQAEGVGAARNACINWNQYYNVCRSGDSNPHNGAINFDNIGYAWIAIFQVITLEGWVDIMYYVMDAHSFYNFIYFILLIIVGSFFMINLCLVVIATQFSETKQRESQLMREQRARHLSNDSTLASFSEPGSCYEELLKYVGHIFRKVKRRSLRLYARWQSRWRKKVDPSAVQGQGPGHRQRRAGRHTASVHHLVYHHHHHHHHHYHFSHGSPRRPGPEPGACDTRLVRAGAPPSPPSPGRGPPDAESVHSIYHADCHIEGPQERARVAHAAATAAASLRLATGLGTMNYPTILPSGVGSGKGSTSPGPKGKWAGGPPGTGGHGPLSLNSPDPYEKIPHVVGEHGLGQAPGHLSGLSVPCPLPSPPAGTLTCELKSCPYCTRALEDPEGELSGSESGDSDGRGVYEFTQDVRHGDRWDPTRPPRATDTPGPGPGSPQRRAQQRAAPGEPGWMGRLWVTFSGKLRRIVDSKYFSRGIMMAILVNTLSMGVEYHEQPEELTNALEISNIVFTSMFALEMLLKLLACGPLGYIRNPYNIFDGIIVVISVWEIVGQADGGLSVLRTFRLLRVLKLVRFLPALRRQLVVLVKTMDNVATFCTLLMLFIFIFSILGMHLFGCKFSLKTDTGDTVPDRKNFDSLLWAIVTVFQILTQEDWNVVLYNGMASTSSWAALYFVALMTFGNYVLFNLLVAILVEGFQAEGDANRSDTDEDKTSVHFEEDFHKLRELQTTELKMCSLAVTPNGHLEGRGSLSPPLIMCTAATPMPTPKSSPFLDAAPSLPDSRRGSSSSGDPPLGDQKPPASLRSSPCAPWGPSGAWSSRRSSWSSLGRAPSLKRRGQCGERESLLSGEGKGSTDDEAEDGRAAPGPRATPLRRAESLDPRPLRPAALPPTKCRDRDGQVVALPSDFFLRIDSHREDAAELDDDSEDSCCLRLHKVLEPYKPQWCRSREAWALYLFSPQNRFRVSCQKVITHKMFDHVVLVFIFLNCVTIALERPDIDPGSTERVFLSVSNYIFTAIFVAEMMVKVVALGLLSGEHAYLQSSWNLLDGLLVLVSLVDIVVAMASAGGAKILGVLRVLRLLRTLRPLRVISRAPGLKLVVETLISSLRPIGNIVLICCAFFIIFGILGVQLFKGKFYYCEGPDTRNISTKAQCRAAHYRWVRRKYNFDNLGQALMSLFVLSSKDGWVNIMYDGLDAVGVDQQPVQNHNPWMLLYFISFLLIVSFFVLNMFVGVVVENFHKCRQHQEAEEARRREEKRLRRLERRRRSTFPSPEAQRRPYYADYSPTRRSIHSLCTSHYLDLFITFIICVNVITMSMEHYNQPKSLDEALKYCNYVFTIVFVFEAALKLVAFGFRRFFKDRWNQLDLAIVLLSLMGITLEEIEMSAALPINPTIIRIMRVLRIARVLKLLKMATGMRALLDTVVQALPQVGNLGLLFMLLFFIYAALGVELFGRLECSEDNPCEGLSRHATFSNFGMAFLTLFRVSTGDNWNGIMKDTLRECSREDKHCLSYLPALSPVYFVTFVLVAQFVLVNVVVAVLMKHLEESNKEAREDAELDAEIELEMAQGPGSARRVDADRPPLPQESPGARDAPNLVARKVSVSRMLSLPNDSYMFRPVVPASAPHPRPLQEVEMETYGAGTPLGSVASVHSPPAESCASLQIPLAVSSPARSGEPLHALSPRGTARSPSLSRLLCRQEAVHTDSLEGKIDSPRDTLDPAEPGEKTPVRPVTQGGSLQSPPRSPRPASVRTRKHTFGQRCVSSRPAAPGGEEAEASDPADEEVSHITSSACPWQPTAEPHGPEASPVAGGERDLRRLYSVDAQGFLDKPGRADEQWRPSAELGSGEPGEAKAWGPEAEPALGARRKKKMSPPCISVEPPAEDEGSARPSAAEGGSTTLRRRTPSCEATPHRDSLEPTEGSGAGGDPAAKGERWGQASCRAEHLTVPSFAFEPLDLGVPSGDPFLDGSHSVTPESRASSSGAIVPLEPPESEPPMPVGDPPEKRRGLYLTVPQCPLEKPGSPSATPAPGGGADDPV

Protein skinhead-1 = molecular target: T2, Protein skinhead-1 (Caenorhabditis elegans, UniProt P34707); type: functional
T2 sequence (P34707 whole entry): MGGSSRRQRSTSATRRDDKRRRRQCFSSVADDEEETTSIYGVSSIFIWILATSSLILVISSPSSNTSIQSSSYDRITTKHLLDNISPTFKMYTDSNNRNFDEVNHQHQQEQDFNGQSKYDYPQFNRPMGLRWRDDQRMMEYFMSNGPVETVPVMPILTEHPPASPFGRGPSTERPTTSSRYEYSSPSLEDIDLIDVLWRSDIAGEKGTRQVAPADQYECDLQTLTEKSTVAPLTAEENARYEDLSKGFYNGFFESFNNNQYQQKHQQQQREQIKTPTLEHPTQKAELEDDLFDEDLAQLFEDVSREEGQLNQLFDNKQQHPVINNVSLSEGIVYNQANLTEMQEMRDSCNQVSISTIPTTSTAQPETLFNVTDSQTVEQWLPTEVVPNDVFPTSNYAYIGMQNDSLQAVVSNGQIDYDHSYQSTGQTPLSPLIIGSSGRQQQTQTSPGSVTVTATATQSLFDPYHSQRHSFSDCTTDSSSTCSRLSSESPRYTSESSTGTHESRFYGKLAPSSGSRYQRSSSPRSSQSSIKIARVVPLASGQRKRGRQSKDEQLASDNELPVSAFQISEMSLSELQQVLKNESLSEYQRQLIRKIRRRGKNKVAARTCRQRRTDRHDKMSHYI

Fatty acid synthase [3] = molecular target: T3, Fatty acid synthase (Homo sapiens, UniProt P49327); assay: FAS thioesterase domain inhibitors, dose response, biochemical, endpoint fluorescence intensity, uHTS hits (AID 624327); type: functional;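 also: fluorescence from hydrolysis of an O-methyl fluorescein acyl ester substrate by the enzyme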
T3 sequence (P49327 whole entry, the tested form may be a part): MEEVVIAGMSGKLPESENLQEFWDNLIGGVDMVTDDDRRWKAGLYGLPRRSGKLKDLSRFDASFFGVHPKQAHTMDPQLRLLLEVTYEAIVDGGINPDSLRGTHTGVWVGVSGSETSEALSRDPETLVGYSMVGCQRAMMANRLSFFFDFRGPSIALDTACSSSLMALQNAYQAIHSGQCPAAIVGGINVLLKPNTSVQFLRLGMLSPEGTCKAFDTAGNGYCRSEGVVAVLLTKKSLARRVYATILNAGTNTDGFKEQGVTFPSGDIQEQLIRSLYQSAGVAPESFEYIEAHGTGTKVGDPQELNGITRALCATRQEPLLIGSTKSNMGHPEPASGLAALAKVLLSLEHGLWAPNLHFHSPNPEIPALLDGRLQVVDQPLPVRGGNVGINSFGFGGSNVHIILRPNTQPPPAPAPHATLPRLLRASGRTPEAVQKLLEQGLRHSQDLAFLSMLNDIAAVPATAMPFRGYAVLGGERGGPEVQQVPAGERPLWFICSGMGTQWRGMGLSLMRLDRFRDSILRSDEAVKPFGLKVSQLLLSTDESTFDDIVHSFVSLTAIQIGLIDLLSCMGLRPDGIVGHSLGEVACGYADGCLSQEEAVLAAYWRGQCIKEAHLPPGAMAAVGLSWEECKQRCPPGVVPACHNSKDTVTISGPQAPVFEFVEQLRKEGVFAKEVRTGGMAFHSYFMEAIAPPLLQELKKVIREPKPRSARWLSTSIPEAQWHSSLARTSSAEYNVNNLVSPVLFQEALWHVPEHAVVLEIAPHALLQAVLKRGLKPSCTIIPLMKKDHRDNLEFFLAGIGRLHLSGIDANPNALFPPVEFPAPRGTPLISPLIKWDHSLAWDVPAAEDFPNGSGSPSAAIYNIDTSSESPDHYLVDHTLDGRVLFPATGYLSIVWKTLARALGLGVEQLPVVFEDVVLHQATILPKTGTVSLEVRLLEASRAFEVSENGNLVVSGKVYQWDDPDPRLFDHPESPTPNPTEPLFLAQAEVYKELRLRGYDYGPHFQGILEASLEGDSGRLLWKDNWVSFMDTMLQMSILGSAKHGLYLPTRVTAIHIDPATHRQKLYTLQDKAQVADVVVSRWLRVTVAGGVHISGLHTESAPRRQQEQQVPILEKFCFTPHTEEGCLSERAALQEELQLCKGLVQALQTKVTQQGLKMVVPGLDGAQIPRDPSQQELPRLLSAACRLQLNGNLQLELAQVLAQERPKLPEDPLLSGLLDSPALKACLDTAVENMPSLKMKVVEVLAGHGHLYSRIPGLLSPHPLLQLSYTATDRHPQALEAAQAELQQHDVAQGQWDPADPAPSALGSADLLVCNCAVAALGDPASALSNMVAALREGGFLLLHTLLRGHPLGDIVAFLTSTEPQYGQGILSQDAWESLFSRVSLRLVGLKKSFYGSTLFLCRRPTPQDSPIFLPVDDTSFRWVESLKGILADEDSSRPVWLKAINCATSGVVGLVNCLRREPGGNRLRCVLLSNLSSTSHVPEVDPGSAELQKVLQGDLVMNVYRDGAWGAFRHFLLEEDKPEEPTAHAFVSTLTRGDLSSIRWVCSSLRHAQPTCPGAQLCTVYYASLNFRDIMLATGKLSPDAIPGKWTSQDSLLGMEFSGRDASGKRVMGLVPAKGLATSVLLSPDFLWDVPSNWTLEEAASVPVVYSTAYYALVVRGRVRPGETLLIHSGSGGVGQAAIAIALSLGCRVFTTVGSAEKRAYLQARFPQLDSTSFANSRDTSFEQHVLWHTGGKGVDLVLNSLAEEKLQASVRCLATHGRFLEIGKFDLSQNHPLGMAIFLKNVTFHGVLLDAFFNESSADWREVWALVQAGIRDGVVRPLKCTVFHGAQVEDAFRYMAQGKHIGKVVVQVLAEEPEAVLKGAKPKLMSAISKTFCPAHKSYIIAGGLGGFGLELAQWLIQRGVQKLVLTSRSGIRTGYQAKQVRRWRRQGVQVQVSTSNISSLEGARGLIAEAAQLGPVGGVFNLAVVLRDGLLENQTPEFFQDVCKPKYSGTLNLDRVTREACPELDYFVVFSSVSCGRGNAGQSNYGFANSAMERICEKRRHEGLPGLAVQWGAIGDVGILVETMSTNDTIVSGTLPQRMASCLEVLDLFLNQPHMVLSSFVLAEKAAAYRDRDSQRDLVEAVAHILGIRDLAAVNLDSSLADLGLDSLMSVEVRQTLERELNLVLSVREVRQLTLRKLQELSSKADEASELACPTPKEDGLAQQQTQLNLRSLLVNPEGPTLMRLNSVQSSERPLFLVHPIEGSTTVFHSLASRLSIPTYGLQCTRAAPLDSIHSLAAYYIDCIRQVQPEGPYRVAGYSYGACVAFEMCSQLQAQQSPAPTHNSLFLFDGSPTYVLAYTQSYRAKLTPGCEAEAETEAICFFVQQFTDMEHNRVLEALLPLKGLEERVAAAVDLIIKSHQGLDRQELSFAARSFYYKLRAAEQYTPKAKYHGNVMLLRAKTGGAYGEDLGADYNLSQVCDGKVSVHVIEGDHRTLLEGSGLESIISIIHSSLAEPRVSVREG

Fatty acid synthase [4] = molecular target: T3, Fatty acid synthase; assay: FAS thioesterase domain inhibitors, dose response, biochemical, kinetic fluorescence intensity (AID 624326); type: functional;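 also: rate of fluorescence rise from hydrolysis of a fluorogenic O-methyl fluorescein ester substrate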
Coagulation factor XII = molecular target: T4, Coagulation factor XII (Homo sapiens, UniProt P00748); type: functional;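 also: activated factor XIIa alpha cleaving a fluorogenic AMC peptide substrate; inhibitor potency from loss of enzyme activity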
T4 sequence (P00748 whole entry): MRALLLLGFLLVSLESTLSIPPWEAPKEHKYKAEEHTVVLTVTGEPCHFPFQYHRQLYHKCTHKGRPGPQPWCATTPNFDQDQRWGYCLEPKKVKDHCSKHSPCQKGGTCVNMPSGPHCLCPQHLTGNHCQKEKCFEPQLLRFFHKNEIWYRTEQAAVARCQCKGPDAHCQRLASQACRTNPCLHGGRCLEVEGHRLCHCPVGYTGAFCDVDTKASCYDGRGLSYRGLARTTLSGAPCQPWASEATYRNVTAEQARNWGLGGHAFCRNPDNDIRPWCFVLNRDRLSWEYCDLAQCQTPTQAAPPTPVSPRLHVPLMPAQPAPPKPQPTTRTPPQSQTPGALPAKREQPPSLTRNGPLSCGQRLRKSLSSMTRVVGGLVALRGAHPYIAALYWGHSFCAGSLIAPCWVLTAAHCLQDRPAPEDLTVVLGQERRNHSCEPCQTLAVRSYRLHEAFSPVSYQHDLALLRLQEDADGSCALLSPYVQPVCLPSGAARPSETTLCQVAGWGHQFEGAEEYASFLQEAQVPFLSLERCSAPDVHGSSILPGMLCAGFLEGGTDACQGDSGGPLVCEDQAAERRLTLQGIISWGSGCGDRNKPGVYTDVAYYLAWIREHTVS

[5] = molecular target: T5, Carboxy-terminal domain RNA polymerase II polypeptide A small phosphatase 1 (Homo sapiens, UniProt Q9GZU7); assay: inhibitors of CTDSP1, concentration-response testing, biochemical assay, absorbance-based, actives from ultra-high-throughput screening (AID 540297); type: functional
T5 sequence (Q9GZU7 whole entry): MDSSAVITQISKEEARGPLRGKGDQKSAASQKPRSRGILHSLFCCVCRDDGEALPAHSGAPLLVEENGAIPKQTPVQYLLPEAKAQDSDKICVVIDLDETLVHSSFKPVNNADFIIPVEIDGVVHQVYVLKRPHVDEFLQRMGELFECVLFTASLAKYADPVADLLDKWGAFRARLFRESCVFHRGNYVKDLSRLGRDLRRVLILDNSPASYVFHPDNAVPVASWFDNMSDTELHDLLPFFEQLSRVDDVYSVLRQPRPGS

[6] = molecular target: Heat shock protein HSP 90-alpha (Homo sapiens, UniProt P07900); type: functional, organism-based
[7] = molecular target: T6, Corticotropin-releasing factor receptor 2/Corticotropin-releasing factor-binding protein (Homo sapiens, UniProt P24387+Q13324); assay: activators of CRF receptor 2 with binding protein – uHTS hits, confirmation (AID 602473); type: functional; conditions: read-out: EC50_Mean
T6 sequence (Q13324 whole entry): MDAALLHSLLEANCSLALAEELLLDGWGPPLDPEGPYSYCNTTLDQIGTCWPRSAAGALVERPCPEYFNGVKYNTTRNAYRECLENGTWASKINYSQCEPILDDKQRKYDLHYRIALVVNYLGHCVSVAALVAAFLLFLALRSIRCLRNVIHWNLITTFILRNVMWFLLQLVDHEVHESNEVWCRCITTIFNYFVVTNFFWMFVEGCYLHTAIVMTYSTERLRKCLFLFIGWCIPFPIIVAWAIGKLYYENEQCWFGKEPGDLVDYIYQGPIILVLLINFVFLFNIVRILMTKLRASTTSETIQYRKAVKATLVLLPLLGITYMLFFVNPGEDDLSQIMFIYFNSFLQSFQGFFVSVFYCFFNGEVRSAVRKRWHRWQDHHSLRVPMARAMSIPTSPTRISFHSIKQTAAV
T6 sequence (P24387 whole entry): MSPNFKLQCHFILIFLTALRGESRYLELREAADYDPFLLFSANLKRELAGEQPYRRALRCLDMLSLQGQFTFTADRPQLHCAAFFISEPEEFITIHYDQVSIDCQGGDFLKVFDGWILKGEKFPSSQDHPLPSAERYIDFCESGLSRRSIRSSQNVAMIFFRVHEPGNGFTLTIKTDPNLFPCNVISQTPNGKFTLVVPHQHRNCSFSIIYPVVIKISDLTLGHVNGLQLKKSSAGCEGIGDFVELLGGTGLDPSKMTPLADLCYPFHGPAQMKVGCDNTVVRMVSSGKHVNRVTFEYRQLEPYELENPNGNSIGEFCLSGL

[8] = Luminescence Cell-Based Dose Retest to Confirm Inhibitors of Cancer Stem Cells. [Related pubchem assays (depositor defined):AID2717, AID2721]; type: functional; conditions: Homo sapiens
[9] = molecular target: T7, Rac GTPase-activating protein 1 (Homo sapiens, UniProt Q9H0H5); assay: MgcRacGAP GTPase-activating activity inhibitors, confirmation, biochemical, ADP Hunter fluorescence, primary and confirmatory (AID 624330); type: functional
T7 sequence (Q9H0H5 whole entry): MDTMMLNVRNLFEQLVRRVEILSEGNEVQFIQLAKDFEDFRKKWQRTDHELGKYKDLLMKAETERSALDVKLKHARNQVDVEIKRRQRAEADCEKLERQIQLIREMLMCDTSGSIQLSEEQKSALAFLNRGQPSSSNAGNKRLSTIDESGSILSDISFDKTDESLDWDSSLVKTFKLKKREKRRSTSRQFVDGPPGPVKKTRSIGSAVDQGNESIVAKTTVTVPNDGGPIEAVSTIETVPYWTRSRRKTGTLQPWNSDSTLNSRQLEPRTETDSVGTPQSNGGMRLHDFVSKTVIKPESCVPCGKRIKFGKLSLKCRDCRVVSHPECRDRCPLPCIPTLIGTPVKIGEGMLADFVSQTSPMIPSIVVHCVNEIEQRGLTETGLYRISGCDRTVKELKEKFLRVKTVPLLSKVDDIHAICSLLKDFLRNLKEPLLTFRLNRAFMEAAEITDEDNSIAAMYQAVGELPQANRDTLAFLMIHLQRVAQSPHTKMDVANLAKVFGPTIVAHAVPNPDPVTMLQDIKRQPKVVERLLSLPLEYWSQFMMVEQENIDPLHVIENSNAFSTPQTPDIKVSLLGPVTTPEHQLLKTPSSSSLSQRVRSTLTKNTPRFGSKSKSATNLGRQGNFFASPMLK

CCN(CC)CCCCCCCCOC(=O)c1cc(OC)c(OC)c(OC)c1
IC50 [1]: 15.1 µM (active)

O=[N+]([O-])c1cccc(S(=O)(=O)Nc2ccc(Cc3ccncc3)cc2)c1
IC50 [1]: 10.5 µM (active)

CC1CCCN(C(=O)CSCC(=O)Nc2nc(-c3cccs3)cs2)C1 (stereo not given)
EC50 [2]: 4.52 µM (active)

COc1ccc(NC(=O)C2CCCN2S(=O)(=O)c2ccc3c(c2)CCC(=O)N3)cc1 (stereo not given)
EC50 [2]: 9.23 µM (active)

Cc1[nH]c2ccccc2c1NC(=O)CN1CCN(c2cccc(C(F)(F)F)c2)CC1
EC50 [2]: 4.61 µM (active)

O=C(NCCc1ccccc1)c1ccc2c(=O)[nH]c3c(C(=O)NCC4CCCO4)sc(=S)n3c2c1 (stereo not given)
IC50 [1]: 16.6 µM (active)

O=C(c1cccc(Cl)c1)N(Cc1cccs1)C1CCS(=O)(=O)C1 (stereo not given)
IC50 (Protein skinhead-1): > 100 µM (inactive)

CCCCCOC(=O)c1ccc(N2C(=O)C3C4C=CC(C4)C3C2=O)cc1 (stereo not given)
IC50 (Fatty acid synthase [3]): 2.93 µM (active)
IC50 (Fatty acid synthase [4]): 2.43 µM (active)

O=C(Nc1cc([N+](=O)[O-])ccc1Cl)C(Sc1ccccc1)c1ccccc1 (stereo not given)
IC50 (Fatty acid synthase [3]): 4.75 µM (active)
IC50 (Fatty acid synthase [4]): 2.86 µM (active)

CSC1=NSC2=NC(=O)/C(=C\c3c(C)[nH]c4ccc(C)cc34)C(=N)N12
IC50 (Coagulation factor XII): > 50 µM (inactive)

CC(C)CN1CCC(Oc2cccc(C(=O)NCCc3ccccc3)c2)CC1
IC50 [1]: 10.7 µM (active)

Cc1nc(SCC(=O)NCc2ccc3c(c2)OCO3)c(C#N)c2c1CCCC2
EC50 [2]: 5.41 µM (active)

CCOc1ccccc1NC(=O)C(CC(C)C)NC(=O)C1CCC(C)CC1 (stereo not given)
IC50 (Protein skinhead-1): > 100 µM (inactive)

O=C(CCNC(=O)c1ccccc1)NN=Cc1ccc(Br)o1
IC50 [5]: 10.2 µM (active)

COc1ccc(S(=O)(=O)NC2CC3CCC2C3)cc1Cl (stereo not given)
AC50 [6]: 3.41 µM (active)

O=C(NCc1ccc2c(c1)OCO2)C1CC(c2ccc(Cl)cc2)=NO1 (stereo not given)
EC50 [2]: 0.496 µM (active)

CCN(CC)C(=S)Sc1c(-c2ccccc2)c2cc(Cl)ccc2[nH]c1=O
EC50 [7]: > 53 µM (inactive)
IC50 (Protein skinhead-1): > 100 µM (inactive)

CCCn1c(NCc2c[nH]c3ccccc23)nc2ccccc21
EC50 [2]: 5.89 µM (active)

O=C(Nc1ccc(S(=O)(=O)Nc2nccs2)cc1)c1ccc(O)nc1
IC50 [5]: 7.11 µM (active)

CCN(CC)P(=O)(c1n(CC)cc[n+]1CC)N(CC)CC
IC50 [5]: 3.98 µM (active)

CCOC(=O)c1c(NC(=O)c2ccc(Br)o2)sc2c1CCCC2
IC50 (Coagulation factor XII): > 50 µM (inactive)

O=C(NCc1ccco1)/C(=C\c1cccc([N+](=O)[O-])c1)NC(=O)c1ccco1
IC50 (Fatty acid synthase [3]): 9.41 µM (active)
IC50 (Fatty acid synthase [4]): 8.51 µM (active)

O=C(NCCc1ccccc1)c1cc(=O)c2ccccc2o1
IC50 (Coagulation factor XII): > 50 µM (inactive)

CC(C)CCC(C(=O)NC(C)c1ccccc1)C(=O)NC(C)c1ccccc1 (stereo not given)
IC50 [5]: 11.7 µM (active)

O=C(/C=C/c1cccc([N+](=O)[O-])c1)NCCSc1ccccc1
IC50 (Fatty acid synthase [3]): 4.58 µM (active)
IC50 (Fatty acid synthase [4]): 5.62 µM (active)

CCC1Sc2ccccc2N(CC(=O)NCCC2=CCCCC2)C1=O (stereo not given)
EC50 [2]: 4.76 µM (active)

COc1ccc(-c2sc3ccccc3c2/C=C/c2ccncc2)cc1
AC50 [8]: 4.57 µM (active)
AC50 [6]: 3.9 µM (active)

Cc1c(CN2CCCC(C(=O)Nc3cccc(-n4cccn4)c3)C2)cnn1C (stereo not given)
IC50 (Protein skinhead-1): > 100 µM (inactive)

O=C(OCc1ccc([N+](=O)[O-])cc1)C1CCN(S(=O)(=O)c2ccccc2)CC1
IC50 (Fatty acid synthase [3]): 9.66 µM (active)
IC50 (Fatty acid synthase [4]): 9.2 µM (active)

CN(CC(=O)Nc1ccc(Cl)c(C(F)(F)F)c1)C(=O)C1CC(=O)N(c2ccc3c(c2)OCCO3)C1 (stereo not given)
IC50 (Fatty acid synthase [3]): 10.4 µM (active)
IC50 (Fatty acid synthase [4]): 11.3 µM (active)

COc1cc(/C=N/n2cnnc2)ccc1OC(=O)c1cccnc1
IC50 (Coagulation factor XII): > 50 µM (inactive)
IC50 [9]: 32 µM (active)
